The text below walks through data of ChEMBL document CHEMBL1201862, “PubChem BioAssay data set” (2004).

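Protocol summary: plate cells (96-well), add compound at 5 concentrations, incubate 48 h, interpolate endpoints linearly. Abbreviation: GI50, concentration required for 50% inhibition of growth.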 Activity calls are given as the source filed them. No stated cut-off is given here; in the data, active = GI50 up to about 1.1 µM and inactive = higher.

Some test systems named below: BT-549; CCRF-CEM; COLO 205; DU-145; EKVX; HCT-15; HT-29; IGROV-1; MDA-N; OVCAR-3; OVCAR-5; RPMI-8226; RXF 393; SK-MEL-5; SK-OV-3; T47D; UACC-257; ACHN; SK-MEL-2; Hs-578T.
What all share (assay): NCI-60 cell line screen, 48 h

With `OCCOCn1nc(-c2ccccc2)nc1-c1cnccn1`, the GI50 is > 100 µM (inactive) in the experiment with BT-549; > 100 µM (inactive) in the experiment with CCRF-CEM; > 100 µM (inactive) with COLO 205; > 100 µM (inactive) in the experiment with DU-145; > 100 µM (inactive) with EKVX; above 100 µM in the experiment on HCT-15. Also, the GI50 in the experiment with HT-29, in the experiment on IGROV-1, with MDA-N, in the experiment on OVCAR-3, in the experiment on OVCAR-5 and with RPMI-8226 was > 100 µM (inactive) throughout. In addition, the GI50 in the experiment with RXF 393, with SK-MEL-5, in the experiment with SK-OV-3, in the experiment with T47D and with UACC-257 was > 100 µM (inactive) throughout.

For the compound `CCN(CC)CC(=N)N(CC)c1ccccc1`, the GI50 with ACHN is > 100 µM (inactive); in the experiment with CCRF-CEM, > 100 µM (inactive); in the experiment with COLO 205 it was > 100 µM (inactive); in the experiment with EKVX, > 100 µM (inactive); in the experiment on HCT-15, above 100 µM; in the experiment with IGROV-1 it was > 100 µM (inactive). Besides, the GI50 in the experiment with OVCAR-3, in the experiment with OVCAR-5, in the experiment with RPMI-8226, with RXF 393, with SK-MEL-2 and in the experiment with SK-MEL-5 was > 100 µM (inactive) throughout. For the same compound, the GI50 in the experiment with SK-OV-3 was > 100 µM (inactive); in the experiment on UACC-257, 43.6 µM (inactive).

Take `CSC(=N)NNC(=O)CCC(=O)Nc1ccccc1C(F)(F)F`: the GI50 in the experiment with ACHN is > 100 µM (inactive); with CCRF-CEM it was > 100 µM (inactive); with COLO 205, > 100 µM (inactive); with EKVX, > 100 µM (inactive); in the experiment on HCT-15, above 100 µM; with HT-29, > 100 µM (inactive). For the same compound, the GI50 in the experiment with IGROV-1, with OVCAR-3, with OVCAR-5, with RPMI-8226, in the experiment on RXF 393 and in the experiment with SK-MEL-2 was > 100 µM (inactive) each time. Moreover, the GI50 in the experiment with SK-MEL-5, in the experiment on SK-OV-3 and with UACC-257 was > 100 µM (inactive) in each case.

As for `CCCCC1=C(Br)C(=C(Br)Br)OC1=O`, the GI50 with CCRF-CEM is 2.45 µM (inactive); in the experiment on COLO 205, 3.01 µM (inactive); in the experiment with EKVX, 2.49 µM (inactive); with HCT-15, 2.2 µM; in the experiment on HT-29, 3.08 µM (inactive); in the experiment with IGROV-1, 2.25 µM (inactive). The GI50 was 2.55 µM (inactive) in the experiment with OVCAR-3; 16.5 µM (inactive) in the experiment on OVCAR-5; 0.379 µM (active) in the experiment with RPMI-8226; 2.09 µM (inactive) in the experiment with RXF 393; 2.79 µM (inactive) with SK-MEL-2; 3.71 µM (inactive) in the experiment on SK-MEL-5. Also, the GI50 in the experiment on SK-OV-3 was 17.6 µM (inactive); in the experiment with UACC-257 it was 2.48 µM (inactive).

Consider `COC(=O)C1OC(Oc2cc(O)c3c(=O)cc(-c4ccc(O)cc4)oc3c2)C(O)C(O)C1O` (configuration not stated), for which the GI50 with CCRF-CEM is > 100 µM (inactive); with COLO 205 it was > 100 µM (inactive); with EKVX it was > 100 µM (inactive); with HCT-15, above 100 µM; in the experiment with HT-29 it was > 100 µM (inactive); in the experiment on IGROV-1, > 100 µM (inactive). Also, the GI50 in the experiment on OVCAR-3, in the experiment on OVCAR-5, in the experiment on RPMI-8226, in the experiment with RXF 393, with SK-MEL-2 and in the experiment on SK-MEL-5 was > 100 µM (inactive) each time. Besides, the GI50 with SK-OV-3 and in the experiment on UACC-257 was > 100 µM (inactive) each time.

Regarding `O=C(NC1C(O)C(O)C(CO)OC1n1cc(F)c(=O)[nH]c1=O)OCc1ccccc1` (configuration not stated), the GI50 with ACHN is > 100 µM (inactive); with CCRF-CEM, 22.2 µM (inactive); with COLO 205 it was > 100 µM (inactive); in the experiment with HCT-15 it was above 100 µM; in the experiment on HT-29, > 100 µM (inactive); with OVCAR-5 it was > 100 µM (inactive). The GI50 with RPMI-8226, with RXF 393, with SK-MEL-2, in the experiment with SK-MEL-5, in the experiment with SK-OV-3 and in the experiment on UACC-257 was > 100 µM (inactive) each time.

Take `CCCCC(NC(=O)CC)C(=O)O` (configuration not stated): the GI50 with CCRF-CEM was > 100 µM (inactive); in the experiment with COLO 205, > 100 µM (inactive); in the experiment on EKVX, > 100 µM (inactive); in the experiment on HCT-15, above 100 µM; in the experiment with HT-29, > 100 µM (inactive); with IGROV-1, > 100 µM (inactive). For the same compound, the GI50 with OVCAR-3, in the experiment on OVCAR-5, with RPMI-8226, in the experiment on SK-MEL-2, in the experiment with SK-MEL-5 and with SK-OV-3 was > 100 µM (inactive) throughout. The GI50 with UACC-257 was > 100 µM (inactive).

Turning to `CCN(CC)Cc1ccc2cccnc2c1O`, the GI50 in the experiment with ACHN is 2.33 µM (inactive); with BT-549, 37.1 µM (inactive); with CCRF-CEM it was 0.713 µM (active); with COLO 205, 15.7 µM (inactive); in the experiment on DU-145, 10.8 µM (inactive); in the experiment with EKVX it was 2.24 µM (inactive). For the same compound, the GI50 is 0.365 µM in the experiment on HCT-15; 2.9 µM (inactive) in the experiment on HT-29; 25.4 µM (inactive) in the experiment on Hs-578T; 2.77 µM (inactive) in the experiment with IGROV-1; 10.6 µM (inactive) in the experiment with MDA-N; 2.88 µM (inactive) with OVCAR-3. Further, the GI50 with OVCAR-5 is 10.3 µM (inactive); in the experiment on RPMI-8226, 3.1 µM (inactive); with RXF 393, 93.1 µM (inactive); with SK-MEL-2, 20.1 µM (inactive); in the experiment with SK-MEL-5, 3.54 µM (inactive); in the experiment with SK-OV-3 it was 7.01 µM (inactive). For the same compound, the GI50 in the experiment with UACC-257 was 4.91 µM (inactive).

Take `CCN(CC)CCN(C(=O)c1ccc(F)cc1)c1ccccc1N`: the GI50 is > 10 µM (inactive) with ACHN; > 10 µM (inactive) in the experiment on CCRF-CEM; > 10 µM (inactive) in the experiment on COLO 205; > 10 µM (inactive) with DU-145; > 10 µM (inactive) in the experiment on EKVX; above 10 µM with HCT-15. The GI50 in the experiment with HT-29, in the experiment with Hs-578T, in the experiment with IGROV-1, with MDA-N, in the experiment on OVCAR-3 and in the experiment with OVCAR-5 was > 10 µM (inactive) each time. Besides, the GI50 with RPMI-8226, with RXF 393, in the experiment with SK-MEL-2, in the experiment on SK-MEL-5, in the experiment on SK-OV-3 and with T47D was > 10 µM (inactive) in each case.

As for `Nc1ccc(C2(c3ccc(N)cc3)C3CC4CC(C3)CC2C4)cc1`, the GI50 was 18.7 µM (inactive) in the experiment with ACHN; 11.2 µM (inactive) in the experiment with BT-549; 3.76 µM (inactive) with CCRF-CEM; 16.4 µM (inactive) with EKVX; 14.6 µM in the experiment on HCT-15; 0.998 µM (active) with HT-29. In addition, the GI50 in the experiment on IGROV-1 is 9.59 µM (inactive); in the experiment on MDA-N, 18.6 µM (inactive); in the experiment with OVCAR-3, 10.9 µM (inactive); in the experiment with OVCAR-5 it was 15.8 µM (inactive); in the experiment with RXF 393 it was 2.74 µM (inactive); in the experiment with SK-MEL-2, 18.5 µM (inactive). The GI50 in the experiment on SK-OV-3 is 13.4 µM (inactive); in the experiment on T47D, 14.5 µM (inactive); in the experiment with UACC-257 it was 19.2 µM (inactive).

For `O=C(NC1C2CC3CC(C2)CC1C3)c1cc(/C=C/c2ccccc2)nc(S)n1` (configuration not stated), the GI50 with ACHN, with CCRF-CEM, with COLO 205, in the experiment with EKVX, in the experiment with IGROV-1 and in the experiment with OVCAR-3 was > 100 µM (inactive) each time. Besides, the GI50 with OVCAR-5, in the experiment with RPMI-8226, with RXF 393, in the experiment with SK-MEL-2, with SK-MEL-5 and with SK-OV-3 was > 100 µM (inactive) throughout. Moreover, the GI50 in the experiment with UACC-257 was > 100 µM (inactive).

As to `C#CCn1c(=O)c(C#N)c(O)c2cc3ccccc3nc21`, the GI50 is > 100 µM (inactive) in the experiment with CCRF-CEM; > 100 µM (inactive) with COLO 205; > 100 µM (inactive) in the experiment with EKVX; above 100 µM in the experiment on HCT-15; > 100 µM (inactive) with HT-29; > 100 µM (inactive) in the experiment with IGROV-1. The GI50 in the experiment with OVCAR-3 is > 100 µM (inactive); in the experiment with OVCAR-5, > 84.9 µM (inactive); in the experiment with RPMI-8226, > 100 µM (inactive); in the experiment on RXF 393, > 100 µM (inactive); in the experiment on SK-MEL-2, > 100 µM (inactive); with SK-MEL-5 it was > 100 µM (inactive). The GI50 in the experiment with SK-OV-3 and in the experiment on UACC-257 was > 100 µM (inactive) in each case.

Turning to `NCCCCN(CCCN)Cc1ccccc1`, the GI50 in the experiment with ACHN, with BT-549, with CCRF-CEM, in the experiment on COLO 205, in the experiment with DU-145 and in the experiment with EKVX was > 100 µM (inactive) in each case. In addition, the GI50 was above 100 µM with HCT-15; > 100 µM (inactive) with HT-29; > 100 µM (inactive) with Hs-578T; 60 µM (inactive) in the experiment with IGROV-1; > 100 µM (inactive) in the experiment with OVCAR-3; > 100 µM (inactive) in the experiment on OVCAR-5. The GI50 in the experiment with RPMI-8226, in the experiment on RXF 393, in the experiment on SK-MEL-2, in the experiment on SK-MEL-5, in the experiment on SK-OV-3 and in the experiment with T47D was > 100 µM (inactive) each time. In addition, the GI50 in the experiment on UACC-257 is > 100 µM (inactive).
